# Patent US20230181601A1, “TREATMENT OF NON-ALCOHOLIC STEATOHEPATITIS (NASH)” (DURECT CORPORATION, priority 2020, published 2023)
# Experiments:
# [1] = Single oral dose safety and pharmacokinetic study in NASH and healthy subjects; assay type: in vivo, human
# Procedure: The present Example was a randomized, dose ranging, single dose safety and pharmacokinetic study of 25HC3S administered to subjects with NASH and control healthy subjects. […] For each cohort, 10 subjects with NASH were enrolled which were further classified into cirrhotic and non-cirrhotic. Each subject received only one dose of study treatment. The second cohort was dosed after a review of safety and tolerability data from Cohort 1.
# [2] = Metabolite profiling of plasma and feces after oral dose; assay type: in vivo, rats; details: 75 mg/kg oral
# From the text: Radiolabeled components in plasma and feces extracts were profiled and identified using radio-high performance liquid chromatography (HPLC) and high performance liquid chromatography/mass spectrometry (HPLC/MS) methods.
# [3] = Metabolite profiling of plasma, urine and feces after intravenous dose; assay type: in vivo, male Sprague Dawley rats; details: intravenous 10 mg/kg
# Procedure: (§1) Nine male Sprague Dawley rats (Group 1) were designated for the pharmacokinetic phase, 3 male Sprague Dawley rats (Group 2) for the excretion mass balance phase, and 7 male Sprague Dawley rats (Group 3) and 9 male Long Evans rats (Group 4) for the tissue distribution phase. All animals received a single intravenous dose of [^14C]-25HC3S at 10 mg/kg and a target radioactivity of 225 μCi/kg. Blood samples were collected from all Group 1 animals at approximately 0.083, 0.25, 0.5, 1, 2, 4, 8, 12, 24, 48, and 72 hours post-dose. Urine and feces were collected from all Group 2 animals periodically through 168 hours post-dose. […] Following blood collection, animals were euthanized by CO2 inhalation and carcasses frozen in a dry ice/hexane bath for processing by quantitative whole body autoradiography. Whole blood, plasma, urine, feces, cage rinse, and cage wash were analyzed for total radioactivity by liquid scintillation counting.
# [4] = Tissue distribution by quantitative whole body autoradiography after single intravenous dose; assay type: in vivo, male Sprague Dawley rats; details: 10 mg/kg intravenous
# From the text: (§2) The objectives of this study were to determine the plasma pharmacokinetics of [4-^14C]-25HC3S-derived radioactivity in male Sprague Dawley rats, determine the routes of elimination and excretion mass balance of [4-^14C]-25HC3S-derived radioactivity in male Sprague Dawley rats, determine the tissue distribution and tissue pharmacokinetics of [4-^14C]-25HC3S-derived radioactivity using quantitative whole body autoradiography methods in male Sprague Dawley and Long Evans rats following a single intravenous (bolus) dose, and to provide plasma, urine, and fecal homogenate samples for metabolite profiling of [4-^14C]-25HC3S-derived radioactivity.
# as §1
# [5] = Tissue distribution by quantitative whole body autoradiography after single intravenous dose, pigmented rats; assay type: in vivo, male Long Evans rats; details: 10 mg/kg intravenous
# From the text: as §2
# as §1, with “μCi/kg.” for “μCi/kg. Blood samples were collected from all Group 1 animals at approximately 0.083, 0.25, 0.5, 1, 2, 4, 8, 12, 24, 48, and 72 hours post-dose. Urine and feces were collected from all Group 2 animals periodically through 168 hours post-dose.”
# [6] = Plasma pharmacokinetics of radioactivity after single intravenous dose; assay type: in vivo, male Sprague Dawley rats; details: 10 mg/kg single intravenous (bolus)
# From the text: as §2, §1
# [7] = Excretion mass balance after single intravenous dose; assay type: in vivo, male Sprague Dawley rats; details: 10 mg/kg intravenous, over 168 hours
# From the text: as §2
# as §1, with “μCi/kg.” for “μCi/kg. Blood samples were collected from all Group 1 animals at approximately 0.083, 0.25, 0.5, 1, 2, 4, 8, 12, 24, 48, and 72 hours post-dose. Urine and feces were collected from all Group 2 animals periodically through 168 hours post-dose.”
# [8] = Excretion mass balance after single oral (gavage) dose; assay type: in vivo, rats; details: 75 mg/kg single oral (gavage)
# [9] = Tissue distribution by quantitative whole body autoradiography after single oral (gavage) dose; assay type: in vivo, male Sprague Dawley rats; details: 75 mg/kg oral
# [10] = Plasma pharmacokinetics of radioactivity after single oral (gavage) dose; assay type: in vivo, rats; details: 75 mg/kg single oral (gavage)
# [11] = 50 mg single oral dose, Healthy, Geometric Mean
# [12] = 50 mg single oral dose, Healthy, Mean
# [13] = 50 mg single oral dose, NASH, Geometric Mean
# [14] = 50 mg single oral dose, NASH, Mean
# [15] = 200 mg single oral dose, Healthy, Geometric Mean
# [16] = 200 mg single oral dose, Healthy, Mean
# [17] = 200 mg single oral dose, NASH, Geometric Mean
# [18] = 200 mg single oral dose, NASH, Mean
molecule,measurement,setting,value
C[C@H](CCCC(C)(C)O)[C@H]1CC[C@H]2[C@@H]3CC=C4C[C@@H](OS(=O)(=O)[O-])CC[C@]4(C)[C@H]3CC[C@]12C.[Na+] [25HC3S sodium],AUC0-12,[1]; [11],496.7 ng·h/mL
same,AUC0-last,[1]; [11],450.0 ng·h/mL
same,AUCinf,[1]; [11],423.3 ng·h/mL
same,CL/F,[1]; [11],118.11 L/h
same,Cmax,[1]; [11],90.946 ng/mL
same,T1/2,[1]; [11],1.889 h
same,Tmax,[1]; [11],2.834 h
same,AUC0-12,[1]; [12],528.0 ng·h/mL
same,AUC0-last,[1]; [12],477.1 ng·h/mL
same,AUCinf,[1]; [12],438.6 ng·h/mL
same,CL/F,[1]; [12],122.35 L/h
same,Cmax,[1]; [12],93.967 ng/mL
same,T1/2,[1]; [12],1.906 h
same,Tmax,[1]; [12],3.008 h
same,AUC0-12,[1]; [13],597.8 ng·h/mL
same,AUC0-last,[1]; [13],476.1 ng·h/mL
same,AUCinf,[1]; [13],608.3 ng·h/mL
same,CL/F,[1]; [13],82.19 L/h
same,Cmax,[1]; [13],107.627 ng/mL
same,T1/2,[1]; [13],1.670 h
same,Tmax,[1]; [13],2.305 h
same,AUC0-12,[1]; [14],623.1 ng·h/mL
same,AUC0-last,[1]; [14],513.3 ng·h/mL
same,AUCinf,[1]; [14],636.1 ng·h/mL
same,CL/F,[1]; [14],85.29 L/h
same,Cmax,[1]; [14],113.170 ng/mL
same,T1/2,[1]; [14],1.674 h
same,Tmax,[1]; [14],2.408 h
same,AUC0-12,[1]; [15],1162.8 ng·h/mL
same,AUC0-last,[1]; [15],1172.5 ng·h/mL
same,AUCinf,[1]; [15],1181.2 ng·h/mL
same,CL/F,[1]; [15],169.32 L/h
same,Cmax,[1]; [15],255.698 ng/mL
same,T1/2,[1]; [15],1.719 h
same,Tmax,[1]; [15],2.528 h
same,AUC0-12,[1]; [16],1175.9 ng·h/mL
same,AUC0-last,[1]; [16],1185.7 ng·h/mL
same,AUCinf,[1]; [16],1194.3 ng·h/mL
same,CL/F,[1]; [16],171.25 L/h
same,Cmax,[1]; [16],260.500 ng/mL
same,T1/2,[1]; [16],1.753 h
same,Tmax,[1]; [16],2.673 h
same,AUC0-12,[1]; [17],1495.2 ng·h/mL
same,AUC0-last,[1]; [17],1539.2 ng·h/mL
same,AUCinf,[1]; [17],1411.8 ng·h/mL
same,CL/F,[1]; [17],141.66 L/h
same,Cmax,[1]; [17],318.582 ng/mL
same,T1/2,[1]; [17],2.196 h
same,Tmax,[1]; [17],2.647 h
same,AUC0-12,[1]; [18],1541.0 ng·h/mL
same,AUC0-last,[1]; [18],1581.6 ng·h/mL
same,AUCinf,[1]; [18],1428.5 ng·h/mL
same,CL/F,[1]; [18],143.19 L/h
same,Cmax,[1]; [18],332.700 ng/mL
same,T1/2,[1]; [18],2.511 h
same,Tmax,[1]; [18],2.906 h
"C[C@H](CCCC(C)(C)O)[C@H]1CC[C@H]2[C@@H]3CC=C4C[C@@H](O)CC[C@]4(C)[C@H]3CC[C@]12C [M29, 25-hydroxycholesterol]",relative observed intensity (ROI) in plasma,[2]; 2 hour postdose plasma,37%
same,% of total dose in feces,[2]; pools 0 to 168 hours post-dose,1.9 % of total dose
same,concentration at 2 h,"[2]; Sprague Dawley, rat, 2 hour postdose plasma",1230 ng/g
same,"detection in plasma, urine, or feces samples",[3],Neither desmosterol sulfate nor 25-hydroxycholesterol was detected
C[C@H](CCCC(C)(C)O)[C@H]1CC[C@H]2[C@@H]3CC=C4[14CH2][C@@H](OS(=O)(=O)O)CC[C@]4(C)[C@H]3CC[C@]12C [[4-^14C]-25HC3S],plasma:whole blood AUClast ratio,[4],0.79
same,tissue distribution by QWBA,[4],broadly distributed and detected by quantitative whole body autoradiography in all tissues except the eye (lens)
same,whole blood AUClast,[4]; Group 3,"25,200 h*ng-equiv./g"
same,T1/2 in plasma,[4]; QWBA phase,44.3 h
same,T1/2 in whole blood,[4]; QWBA phase,52.2 h
same,maximum plasma concentration,[4]; QWBA phase,"12,400 ng-equiv./g"
same,"tissue:plasma ratio, liver",[4]; calculated using AUClast,11.4
same,"tissue:plasma ratio, small intestine (wall)",[4]; calculated using AUClast,7.44
same,AUClast in liver,[4]; radioactivity,"≤ 364,000 hng/g"
same,binding to pigmented or non-pigmented skin or the uveal tract,[5],no difference
same,plasma or whole blood concentrations versus Sprague Dawley rats,[5]; first 168 hours postdose,no substantial difference
same,terminal elimination phase T1/2,"[6]; plasma, PK phase",26.6 h
same,mean plasma C0,[6]; total radioactivity,"25,900 ng-equiv./g"
same,plasma AUClast,[6]; total radioactivity,"27,900 h*ng-equiv./g"
same,"dose recovered in urine, feces, and cage rinse",[7],approximately 100.2%
same,recovered radioactivity in feces,[7],83.0%
C[C@H](CCCC(C)(C)O)[C@H]1CC[C@H]2[C@@H]3CC=C4CC(OS(=O)(=O)O)CC[C@]4(C)[C@H]3CC[C@]12C (stereo partly shown) [[^14C]-25HC3S],"dose recovered in urine, feces, and cage rinse",[8],approximately 94.5%
same,recovered radioactivity in feces,[8],94.2%
same,plasma:whole blood AUClast ratio,[9],1.12
same,"skin, thymus, prostate, and pituitary tissue concentrations",[9],< 3000 ng equiv./g
same,tissue Tmax,[9],≤ 6 h
same,tissue distribution by QWBA,[9],broadly distributed and detected by quantitative whole body autoradiography in all tissues except the eye (lens)
same,uveal tract and brain concentrations,[9],approximately 1000 ng equiv./g
same,whole blood AUClast,[9],"127,000 h.ng equiv./g"
same,"tissue:plasma ratio, adrenal gland",[9]; calculated using AUClast,6.64
same,"tissue:plasma ratio, liver",[9]; calculated using AUClast,6.96
same,"tissue:plasma ratio, small intestine (wall)",[9]; calculated using AUClast,15.4
same,terminal elimination phase T1/2,[10],27.3 h
same,plasma AUClast,[10]; radioactivity,"96,400 h.ng equiv./g"
desmosterol sulfate,detection in plasma or feces samples,[2],not found
same,"detection in plasma, urine, or feces samples",[3],Neither desmosterol sulfate nor 25-hydroxycholesterol was detected
